One data set deals with TYK2 JH1 (Homo sapiens (Human), UniProt P29597). The data set can be described thus: TYK2 JH1 binding (Kd, Table 2). The note with it: JH1 domain.
A further data set has as its target JAK1 JH2 (Homo sapiens (Human), UniProt P23458). As to the kind of experiment: JAK1 JH2 binding (Kd, Table 2). The following applies: JH2 domain.
Data set [1] has as its target human TYK2 (JH2domain-pseudokinase) (Homo sapiens (Human), UniProt P29597). As to the kind of experiment: TYK2 JH2 domain binding assay (KINOMEscan). The protocol: Binding constants for the compounds described herein against the JH2 domain were determined by the following protocol for a KINOMEscan® assay (DiscoveRx). A fusion protein of a partial length construct of human TYK2 (JH2domain-pseudokinase) (amino acids G556 to D888 based on reference sequence NP_003322.3) and the DNA binding domain of NFkB was expressed in transiently transfected HEK293 cells. From these HEK 293 cells, extracts were prepared in M-PER extraction buffer (Pierce) in the presence of Protease Inhibitor Cocktail Complete (Roche) and Phosphatase Inhibitor Cocktail Set II (Merck) per manufacturers' instructions. The TYK2 (JH2domain-pseudokinase) fusion protein was labeled with a chimeric double-stranded DNA tag containing the NFkB binding site fused to an amplicon for qPCR readout, which was added directly to the expression extract (the final concentration of DNA-tag in the binding reaction is 0.1 nM).
Streptavidin-coated magnetic beads (Dynal M280) were treated with a biotinylated small molecule ligand for 30 minutes at room temperature to generate affinity resins the binding assays. The liganded beads were blocked with excess biotin and washed with blocking buffer (SeaBlock (Pierce), 1% BSA, 0.05% Tween 20, 1 mM DTT) to remove unbound ligand and to reduce nonspecific binding.
The binding reaction was assembled by combining 16 μl of DNA-tagged kinase extract, 3.8 μl liganded affinity beads, and 0.18 μl test compound (PBS/0.05% Tween 20/10 mM DTT/0.1% BSA/2 μg/ml sonicated salmon sperm DNA)]. Extracts were used directly in binding assays without any enzyme purification steps at a ≥10,000-fold overall stock dilution (final DNA-tagged enzyme concentration <0.1 nM). Extracts were loaded with DNA-tag and diluted into the binding reaction in a two-step process. First extracts were diluted 1:100 in 1×binding buffer (PBS/0.05% Tween 20/10 mM DTT/0.1% BSA/2 […] sonicated salmon sperm DNA) containing 10 nM DNA-tag. This dilution was allowed to equilibrate at room temperature for 15 minutes and then subsequently diluted 1:100 in 1× binding buffer. Test compounds were prepared as 111× stocks in 100% DMSO. Kds were determined using an 11-point 3-fold compound dilution series with three DMSO control points. All compounds for Kd measurements were distributed by acoustic transfer (non-contact dispensing) in 100% DMSO. The compounds were then diluted directly into the assays such that the final concentration of DMSO was 0.9%. All reactions were performed in polypropylene 384-well plates. Each was a final volume of 0.02 mL. Assays were incubated with shaking for 1 hour at room temperature. Then the beads were pelleted and washed with wash buffer (1×PBS, 0.05% Tween 20) to remove displaced kinase and test compound. The washed based were resuspended in elution buffer (1 λPBS, 0.05% Tween […] non-biotinylated affinity ligand) and incubated at room temperature with shaking for 30 minutes. The kinase concentration in the eluates was measured by qPCR. qPCR reactions were assembled by adding 2.5 μL of kinase eluate to 7.5 μL of qPCR master mix containing […] amplicon primers and 0.15 μM amplicon probe. The qPCR protocol consisted of a 10 minute hot start at 95° C., followed by 35 cycles of 95° C. for 15 seconds, 60° C. for 1 minute.
Test compounds were prepared as 111× stocks in 100% DMSO. Kds were determined using an 11-point 3-fold compound dilution series with three DMSO control points. All compounds for Kd measurements were distributed by acoustic transfer (non-contact dispensing) in 100% DMSO. The compounds were then diluted directly into the assays such that the final concentration of DMSO was 0.9%. The Kds were determined using a compound top concentration of 30,000 nM. Kd measurements were performed in duplicate.
Binding constants (Kds) were calculated with a standard dose-response curve using the Hill equation: […]
The Hill Slope was set to −1. […]

For data set [2] the following is noted: cn_pd bond, 14-membered ring.
In another data set the target is JAK1 JH1 (Homo sapiens (Human), UniProt P23458). As to the kind of experiment: JAK1 JH1 binding (Kd, Table 2). The following applies: JH1 domain.
A further data set concerns the target JAK2 JH2 (Homo sapiens (Human), UniProt O60674). The data set can be described thus: JAK2 JH2 binding (Kd, Table 2). The following applies: JH2 domain.
The target in the next data set is JAK3 JH1 (Homo sapiens (Human), UniProt P52333). The data set can be described thus: JAK3 JH1 binding (Kd, Table 2). The note with it: JH1 domain.
Another data set deals with JAK2 JH1 (Homo sapiens (Human), UniProt O60674). As to the kind of experiment: JAK2 JH1 binding (Kd, Table 2). The note with it: JH1 domain.
The conditions of data set [3]: cn_pd bond, 14-membered ring. The source holds these as a separate data set.

For 16 compounds, Kd, ring closure, yield after HPLC and ring closure, isolated yield results are on record in patent US20250213571A1, “TYK2 INHIBITORS AND USES THEREOF” (Alumis Inc., priority 2022, published 2025).

Like-named read-outs stand apart in the source and are kept apart here.

Chain of TYK2 JH1 (P29597 897-1176): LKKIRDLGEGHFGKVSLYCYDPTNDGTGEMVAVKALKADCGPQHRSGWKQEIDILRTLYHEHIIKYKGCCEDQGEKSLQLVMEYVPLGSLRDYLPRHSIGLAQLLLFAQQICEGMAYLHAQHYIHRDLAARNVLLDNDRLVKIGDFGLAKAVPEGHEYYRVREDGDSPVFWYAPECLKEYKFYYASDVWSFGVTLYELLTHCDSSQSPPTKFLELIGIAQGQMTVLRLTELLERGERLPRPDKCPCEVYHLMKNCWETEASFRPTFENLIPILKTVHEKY
Chain of JAK2 JH1 (O60674 849-1124): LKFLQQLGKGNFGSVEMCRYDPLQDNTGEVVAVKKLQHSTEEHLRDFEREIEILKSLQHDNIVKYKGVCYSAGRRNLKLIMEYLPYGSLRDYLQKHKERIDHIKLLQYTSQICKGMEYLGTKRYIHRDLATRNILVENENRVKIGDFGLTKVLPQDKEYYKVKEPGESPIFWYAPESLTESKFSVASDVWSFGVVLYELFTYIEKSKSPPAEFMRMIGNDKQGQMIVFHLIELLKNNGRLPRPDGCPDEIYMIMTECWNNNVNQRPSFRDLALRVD
Chain of human TYK2 (JH2domain-pseudokinase) (P29597 556-888): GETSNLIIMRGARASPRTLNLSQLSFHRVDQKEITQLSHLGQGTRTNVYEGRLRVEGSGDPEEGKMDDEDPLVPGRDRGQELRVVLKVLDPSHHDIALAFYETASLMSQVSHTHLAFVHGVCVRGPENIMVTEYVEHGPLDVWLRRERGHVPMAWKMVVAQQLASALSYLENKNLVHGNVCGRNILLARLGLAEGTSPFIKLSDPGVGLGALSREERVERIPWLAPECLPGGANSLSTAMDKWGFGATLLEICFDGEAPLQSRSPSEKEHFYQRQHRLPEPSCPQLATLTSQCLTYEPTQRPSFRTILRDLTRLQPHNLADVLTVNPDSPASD
Chain of JAK3 JH1 (P52333 822-1111): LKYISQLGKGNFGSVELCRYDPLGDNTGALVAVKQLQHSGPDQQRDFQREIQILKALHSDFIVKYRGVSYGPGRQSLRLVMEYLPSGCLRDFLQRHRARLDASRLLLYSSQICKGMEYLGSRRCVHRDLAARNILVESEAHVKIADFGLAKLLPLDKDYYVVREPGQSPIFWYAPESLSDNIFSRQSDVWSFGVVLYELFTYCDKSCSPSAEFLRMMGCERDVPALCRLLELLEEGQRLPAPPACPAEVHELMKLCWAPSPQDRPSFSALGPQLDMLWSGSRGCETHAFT
Chain of JAK1 JH1 (P23458 875-1153): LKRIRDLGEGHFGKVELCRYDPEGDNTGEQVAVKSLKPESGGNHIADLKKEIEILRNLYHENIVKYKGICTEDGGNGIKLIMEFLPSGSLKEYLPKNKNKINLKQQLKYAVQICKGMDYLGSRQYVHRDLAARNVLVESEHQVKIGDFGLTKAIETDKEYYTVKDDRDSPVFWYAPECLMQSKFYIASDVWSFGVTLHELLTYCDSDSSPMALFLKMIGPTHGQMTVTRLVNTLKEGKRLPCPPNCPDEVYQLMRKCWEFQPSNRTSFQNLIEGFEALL
Chain of JAK2 JH2 (O60674 545-809): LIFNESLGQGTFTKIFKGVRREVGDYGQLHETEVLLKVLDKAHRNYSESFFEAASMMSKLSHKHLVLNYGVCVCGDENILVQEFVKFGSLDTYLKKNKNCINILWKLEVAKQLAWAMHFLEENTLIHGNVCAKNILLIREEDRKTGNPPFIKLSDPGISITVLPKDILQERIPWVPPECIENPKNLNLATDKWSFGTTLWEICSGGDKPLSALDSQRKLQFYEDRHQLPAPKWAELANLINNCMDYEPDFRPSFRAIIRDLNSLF
Chain of JAK1 JH2 (P23458 583-855): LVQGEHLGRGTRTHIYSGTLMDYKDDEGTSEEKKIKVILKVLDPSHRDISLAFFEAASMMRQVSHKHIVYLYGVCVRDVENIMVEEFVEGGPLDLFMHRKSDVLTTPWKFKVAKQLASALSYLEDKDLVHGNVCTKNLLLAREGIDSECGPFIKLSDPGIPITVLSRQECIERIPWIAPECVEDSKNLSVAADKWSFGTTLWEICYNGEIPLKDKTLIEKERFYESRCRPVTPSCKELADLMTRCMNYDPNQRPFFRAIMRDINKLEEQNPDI

Consider `COc1nc2cn3c(cnc13)C(=O)N[C@H](C)COCc1cc(c3nnn(C)c3c1)N2` [Compound 79], for which the Kd on TYK2 JH1 was at least 30 µM; on JAK1 JH2 it was at least 30 µM; in [1], 1 to 10 µM. In data set [2] (from COc1nc(Br)cn2c(C(=O)N[C@H](C)COCc3cc(N)c4nnn(C)c4c3)cnc12, Pd2(dba)3/Xantphos/Cs2CO3, 1,4-dioxane, 61.0 mM, 80.0 °C), this compound yielded a ring closure, yield after HPLC of 14%.

With `CNc1cc2nc3c(cnn13)C(=O)N[C@H](C)COCc1cc(c3nnn(C)c3c1)N2` [Compound 33], the equilibrium dissociation constant (Kd) on JAK1 JH1 is at least 30 µM; on TYK2 JH1, at least 30 µM; on JAK1 JH2 it was 1 to 10 µM; in data set [1], under 0.01 µM; on JAK2 JH2, at least 30 µM; on JAK3 JH1, at least 30 µM. At JAK2 JH1, this compound had a Kd of at least 30 µM.

Regarding `CNc1nc2cn3c(c(C)nc13)C(=O)N[C@H](C)COCc1cc(c3nnn(C)c3c1)N2` [Compound 78], the dissociation constant (Kd) in data set [1] is 1 to 10 µM. The compound further displayed a ring closure, yield after HPLC in data set [2] (from CNc1nc(Br)cn2c(C(=O)N[C@H](C)COCc3cc(N)c4nnn(C)c4c3)c(C)nc12, RuPhos Pd G3/Cs2CO3, 1,4-dioxane, 64.0 mM, 80.0 °C) of 11.3%.

Regarding `CNc1cc2nc3c(cnn13)C(=O)N[C@H](C)COCc1cc(c3nn(C)nc3c1)N2` [Compound 34], the Kd at JAK1 JH1 was at least 30 µM; at TYK2 JH1, at least 30 µM; at JAK1 JH2 it was 0.01 to 1 µM; in [1], under 0.01 µM; at JAK2 JH2, 10 to 30 µM; at JAK3 JH1, at least 30 µM. The compound also gave an equilibrium dissociation constant (Kd) on JAK2 JH1 of at least 30 µM.

Regarding `[2H]C1([2H])OC[C@@H](C)NC(=O)c2cnc3c(NC)cc(nn23)Nc2cc1cc1c2nnn1C` [Compound 7, (7R,E)-3′,7-Dimethyl-1^8-(methylamino)-3^1H-5-oxa-2,8-diaza-1(6,3),3(4,6)-diimidazo[1,2-b]pyridazinacyclononaphan-9-one-4,4-d2], the Kd on JAK1 JH1 was at least 30 µM; at TYK2 JH1, 1 to 10 µM; on JAK1 JH2, 0.01 to 1 µM; in data set [1], under 0.01 µM; at JAK2 JH2, 1 to 10 µM; on JAK3 JH1, 10 to 30 µM. The Kd at JAK2 JH1 is at least 30 µM.

“tert-butyl N-methyl-N-[(12R)-12-methyl-10-oxo-14-oxa-2,4,5,7,11,16-hexaazapentacyclo[13.6.2.2^(3,6.0^(5,9.0^(19,23]pentacosa-1(21),3,6,8,15,17,19,22,24-nonaen-24-yl]carbamate” displayed a ring closure, yield after HPLC in [2] (Pd2(dba)3/Xantphos/Cs2CO3, 1,4-dioxane, 50.0 mM, 80.0 °C) of 60%.

As to `CNc1cc2nc3c(cnn13)C(=O)N[C@H](C)COCc1cc(c3c(c1)nnn3C)N2` [Compound 37], the Kd at JAK1 JH1 is at least 30 µM; at TYK2 JH1, at least 30 µM; on JAK1 JH2, 10 to 30 µM; in data set [1] it was under 0.01 µM; on JAK2 JH2 it was at least 30 µM; on JAK3 JH1, at least 30 µM. On JAK2 JH1, the Kd is at least 30 µM.

`CNc1cc2nn3c(cnc13)C(=O)N[C@H](C)COCc1cc(c3c(c1)ncn3C)N2` [Compound 8, (7R,E)-3′,7-Dimethyl-1^8-(methylamino)-3^1H-5-oxa-2,8-diaza-1(6,3)-imidazo[1,2-b] pyridazina-3(7,5)-benzo[d]imidazolacyclononaphan-9-one]: the Kd on JAK1 JH1 was at least 30 µM; on TYK2 JH1, 1 to 10 µM; on JAK1 JH2 it was 0.01 to 1 µM; on JAK2 JH2, 1 to 10 µM; on JAK3 JH1, 10 to 30 µM; on JAK2 JH1 it was at least 30 µM.

`COc1nc2cn3c(c(C)nc13)C(=O)N[C@H](C)COCc1cc(c3nnn(C)c3c1)N2` [Compound 72] registered a Kd in data set [1] of 0.01 to 1 µM. This compound also displayed a ring closure, yield after HPLC in data set [2] (from COc1nc(Br)cn2c(C(=O)N[C@H](C)COCc3cc(N)c4nnn(C)c4c3)c(C)nc12, RuPhos Pd G3/Cs2CO3, 1,4-dioxane, 72.0 mM, 80.0 °C, 4.0 h) of 21%.

`C[C@@H]1COCc2cc(c3nnn(C)c3c2)Nc2cc(N(C)C(=O)OC(C)(C)C)c3ncc(n3n2)C(=O)N1` gave a ring closure, isolated yield in [3] (from C[C@H](COCc1cc(N)c2nnn(C)c2c1)NC(=O)c1cnc2c(N(C)C(=O)OC(C)(C)C)cc(Cl)nn12, Pd2(dba)3/BINAP/Cs2CO3, dioxane, 50.0 mM, 16.0 h) of 50%.

Take `CNc1cc2nn3c(cnc13)C(=O)O[C@H](C)COCc1cc(c3nnn(C)c3c1)N2` [Compound 3, (7R,E)-3′,7-Dimethyl-1^8-(methylamino)-3^1H-5,8-dioxa-2-aza-1(6,3),3(4,6)-diimidazo[1,2-b]pyridazinacyclononaphan-9-one]: the Kd was at least 30 µM on TYK2 JH1, 1 to 10 µM at JAK1 JH2 and under 0.01 µM in data set [1]. In data set [3] (from CNc1cc(Cl)nn2c(C(=O)O[C@H](C)COCc3cc(N)c4nnn(C)c4c3)cnc12, Pd2(dba)3/BINAP/Cs2CO3, dioxane, 27.5 mM, 16.0 h), the ring closure, isolated yield worked out at 33%.

Compound `Cc1nc2c(N)nc3cn2c1C(=O)N[C@H](C)COCc1cc(c2nnn(C)c2c1)N3` [Compound 74] had a Kd in data set [1] of 0.01 to 1 µM. Besides, the ring closure, yield after HPLC in data set [2] (from Cc1nc2c(N)nc(Br)cn2c1C(=O)N[C@H](C)COCc1cc(N)c2nnn(C)c2c1, Pd2(dba)3/Xantphos/Cs2CO3, dioxane, 100.0 °C, 16.0 h) turned out to be 6.2%.

With `C[C@@H]1COCc2cc(c3nnn(C)c3c2)Nc2cn3c(cnc3c(N)n2)C(=O)N1` [Compound 73], the Kd in [1] was 0.01 to 1 µM. Further, the ring closure, yield after HPLC in data set [2] (from C[C@H](COCc1cc(N)c2nnn(C)c2c1)NC(=O)c1cnc2c(N)nc(Br)cn12, RuPhos Pd G3 (0.5 eq)/Cs2CO3, dioxane, 64.0 mM, 100.0 °C, 16.0 h) came to 4.4%.

For “tert-butyl N-methyl-N-[(12R)-12-methyl-10-oxo-14-oxa-2,4,5,7,11,18-hexaazapentacyclo[13.6.2.2^(3,6.0^(5,9.0^(19,23]pentacosa-1(22),3,6,8,15,17,19(23),20,24-nonaen-24-yl]carbamate”, in [3] (Pd2(dba)3/Cs2CO3, 1,4-dioxane, 42.3 mM, 80.0 °C), the ring closure, isolated yield was determined as 67%.

`C[C@@H]1COc2ccnc3cnc(cc23)Nc2cc(N(C)C(=O)OC(C)(C)C)c3ncc(n3n2)C(=O)N1`: the ring closure, isolated yield in data set [3] (from C[C@H](COc1ccnc2cnc(N)cc12)NC(=O)c1cnc2c(N(C)C(=O)OC(C)(C)C)cc(Cl)nn12, Pd2(dba)3/Xantphos/Cs2CO3, 1,4-dioxane, 57.0 mM, 80.0 °C, 16.0 h) worked out at 54%.

“tert-butyl N-methyl-N-[(12R)-12-methyl-10-oxo-2,4,5,7,11,14,16,18-octaazapentacyclo[13.6.2.2^(3,6.0^(5,9.0^(19,23]pentacosa-1(21),3,6,8,15,17,19,22,24-nonaen-24-yl]carbamate” yielded a ring closure, isolated yield in data set [3] (Pd2(dba)3/Xantphos/Cs2CO3, 1,4-dioxane, 100.0 mM, 85.0 °C) of 18%.
